# Test results taken from patent publication US20160090351A1, “INHIBITORS OF DEUBIQUITINATING PROTEASES” (BRANDEIS UNIVERSITY, priority 2013, published 2016).
# Where two headings read alike, the source gives them in different places.
# Experiments:
# [1] = system: DUBs; assay: decomposition of high molecular weight ubiquitinated proteins (HMW-Ub) in lysates of HEK 293T cells expressing HA-Ub; assay type: biochemical, human; settings: for stabilization of the HMW-Ub pool: HEK 293T HA-Ub lysates, 37° C.; for DUB inhibitory activity, SAR in words: relative to C4 or parent analog
# Procedure: FIG. 30 depicts data showing that diphenylcarbonates inhibit the decomposition of high molecular weight ubiquitinated proteins (HMW-Ub). Lysates were prepared from HEK 293T cells expressing HA-ubiquitin. Samples were incubated at 37° C. and reactions were quenched by the addition of reducing Laemmli buffer. HMW-Ub was assessed by SDS-PAGE and immunoblotting with anti-HA antibody. A. Representative immunoblots measuring the decomposition of HMW-Ub in lysates treated with either the DMSO vehicle, G5 (10 μM) or C4 (500 μM). B. Plot of the decomposition of HMW-Ub in lysates treated with DMSO and C4 (500 μM) (N=2; error bars denote range). C. Inhibition of HMW-Ub decomposition by diphenylcarbonates. Lysates were treated with diphenylcarbonates (50 μM). “-” denotes no treatment; D, 1% DMSO vehicle; IU1, an USP14-specific inhibitor; Bort, bortezomib, a proteasome inhibitor. D. Representative decomposition of HMW-Ub after 2 h incubation in the presence of varying concentrations of C4. See also FIG. 36. E. Quantitation of D. The values of EC50 reported in FIG. 29B are the average and S.E.M. of at least 3 independent experiments. See also FIG. 37 and FIG. 38.
# Cells overexpressing HA-ubiquitin were prepared as above. Pellets were typically stored at −80° C. until required, at which time they were thawed on ice. Cell lysis was performed in lysis buffer using a Dounce homogenizer (10 strokes, with grinding, on ice: typical yield approx. 2-5 mg protein per transfected T75 flask for HEK 293T cells; 1-3 mg protein from a T75 flask for Cos-1). Crude lysate was centrifuged at 17000 g for 10 min at 4° C., after which time the concentration of the lysate was normalized to 1 mg/mL. The lysate was aliquoted into PCR strip tubes (typical volumes 75-50 μL) and compound in DMSO was added to this to give a final concentration of DMSO of 1%. Tubes were briefly centrifuged, overlaid with Chill-out wax (50 μL) and placed in a PCR machine at 37° C. with heated lid set to 37° C. Aliquots (9 μL) were removed at the stated times and immediately quenched in (2× final concentration) reducing (dithiothreitol) loading buffer and frozen (−19° C.) till required. Western blot analysis was carried out using standard methods. Samples were resolved by SDS-PAGE, transferred to PVDF [(0.45 μm) (Towbin buffer, tank apparatus, 90 V 1 hour, then overnight at 30 V, 4° C.)] then blocked in 15% milk in TBS-T HS (100 mM Tris HCl, pH 7.6, 500 mM NaCl, 0.5% […]) for at least 2 hours at RT. Afterward, membrane was washed in TBS-T HS then probed with anti HA-HRP (1:18000) for 1.33 hours at RT. Membrane was washed 3 times in TBS-T HS (15 mins) then once in TBS (15 mins) and exposed to ECL II and visualized using blue biofilm. […] When required, membranes were stripped in 100 mM glycine pH 4, 500 mM NaCl, 1% SDS, 5 mM BME, at 55° C. for 19 mins, then analyzed.
# Lysates were prepared from HEK 293T cells expressing N-terminally HA-tagged ubiquitin (HA-Ub) to facilitate the observation of ubiquitinated proteins. In the absence of a DUB inhibitor, the HMW-Ub pool decomposed with a half-life of 34 min (FIG. 30A,B). […] Similar results were obtained in lysates prepared from Cos-1 cells expressing HA-Ub.
# [2] = target: T1, USP9x (Homo sapiens, UniProt Q93008); assay: HA-Ub-VS labeling in K562 cell lysates; assay type: biochemical; settings: compound 40 minutes, then HA-Ub-VS (1.5 μM) 20 minutes
# T1 construct: endogenous in cells; host or cells: K562 cell lysate
# T1 sequence (Q93008 whole entry): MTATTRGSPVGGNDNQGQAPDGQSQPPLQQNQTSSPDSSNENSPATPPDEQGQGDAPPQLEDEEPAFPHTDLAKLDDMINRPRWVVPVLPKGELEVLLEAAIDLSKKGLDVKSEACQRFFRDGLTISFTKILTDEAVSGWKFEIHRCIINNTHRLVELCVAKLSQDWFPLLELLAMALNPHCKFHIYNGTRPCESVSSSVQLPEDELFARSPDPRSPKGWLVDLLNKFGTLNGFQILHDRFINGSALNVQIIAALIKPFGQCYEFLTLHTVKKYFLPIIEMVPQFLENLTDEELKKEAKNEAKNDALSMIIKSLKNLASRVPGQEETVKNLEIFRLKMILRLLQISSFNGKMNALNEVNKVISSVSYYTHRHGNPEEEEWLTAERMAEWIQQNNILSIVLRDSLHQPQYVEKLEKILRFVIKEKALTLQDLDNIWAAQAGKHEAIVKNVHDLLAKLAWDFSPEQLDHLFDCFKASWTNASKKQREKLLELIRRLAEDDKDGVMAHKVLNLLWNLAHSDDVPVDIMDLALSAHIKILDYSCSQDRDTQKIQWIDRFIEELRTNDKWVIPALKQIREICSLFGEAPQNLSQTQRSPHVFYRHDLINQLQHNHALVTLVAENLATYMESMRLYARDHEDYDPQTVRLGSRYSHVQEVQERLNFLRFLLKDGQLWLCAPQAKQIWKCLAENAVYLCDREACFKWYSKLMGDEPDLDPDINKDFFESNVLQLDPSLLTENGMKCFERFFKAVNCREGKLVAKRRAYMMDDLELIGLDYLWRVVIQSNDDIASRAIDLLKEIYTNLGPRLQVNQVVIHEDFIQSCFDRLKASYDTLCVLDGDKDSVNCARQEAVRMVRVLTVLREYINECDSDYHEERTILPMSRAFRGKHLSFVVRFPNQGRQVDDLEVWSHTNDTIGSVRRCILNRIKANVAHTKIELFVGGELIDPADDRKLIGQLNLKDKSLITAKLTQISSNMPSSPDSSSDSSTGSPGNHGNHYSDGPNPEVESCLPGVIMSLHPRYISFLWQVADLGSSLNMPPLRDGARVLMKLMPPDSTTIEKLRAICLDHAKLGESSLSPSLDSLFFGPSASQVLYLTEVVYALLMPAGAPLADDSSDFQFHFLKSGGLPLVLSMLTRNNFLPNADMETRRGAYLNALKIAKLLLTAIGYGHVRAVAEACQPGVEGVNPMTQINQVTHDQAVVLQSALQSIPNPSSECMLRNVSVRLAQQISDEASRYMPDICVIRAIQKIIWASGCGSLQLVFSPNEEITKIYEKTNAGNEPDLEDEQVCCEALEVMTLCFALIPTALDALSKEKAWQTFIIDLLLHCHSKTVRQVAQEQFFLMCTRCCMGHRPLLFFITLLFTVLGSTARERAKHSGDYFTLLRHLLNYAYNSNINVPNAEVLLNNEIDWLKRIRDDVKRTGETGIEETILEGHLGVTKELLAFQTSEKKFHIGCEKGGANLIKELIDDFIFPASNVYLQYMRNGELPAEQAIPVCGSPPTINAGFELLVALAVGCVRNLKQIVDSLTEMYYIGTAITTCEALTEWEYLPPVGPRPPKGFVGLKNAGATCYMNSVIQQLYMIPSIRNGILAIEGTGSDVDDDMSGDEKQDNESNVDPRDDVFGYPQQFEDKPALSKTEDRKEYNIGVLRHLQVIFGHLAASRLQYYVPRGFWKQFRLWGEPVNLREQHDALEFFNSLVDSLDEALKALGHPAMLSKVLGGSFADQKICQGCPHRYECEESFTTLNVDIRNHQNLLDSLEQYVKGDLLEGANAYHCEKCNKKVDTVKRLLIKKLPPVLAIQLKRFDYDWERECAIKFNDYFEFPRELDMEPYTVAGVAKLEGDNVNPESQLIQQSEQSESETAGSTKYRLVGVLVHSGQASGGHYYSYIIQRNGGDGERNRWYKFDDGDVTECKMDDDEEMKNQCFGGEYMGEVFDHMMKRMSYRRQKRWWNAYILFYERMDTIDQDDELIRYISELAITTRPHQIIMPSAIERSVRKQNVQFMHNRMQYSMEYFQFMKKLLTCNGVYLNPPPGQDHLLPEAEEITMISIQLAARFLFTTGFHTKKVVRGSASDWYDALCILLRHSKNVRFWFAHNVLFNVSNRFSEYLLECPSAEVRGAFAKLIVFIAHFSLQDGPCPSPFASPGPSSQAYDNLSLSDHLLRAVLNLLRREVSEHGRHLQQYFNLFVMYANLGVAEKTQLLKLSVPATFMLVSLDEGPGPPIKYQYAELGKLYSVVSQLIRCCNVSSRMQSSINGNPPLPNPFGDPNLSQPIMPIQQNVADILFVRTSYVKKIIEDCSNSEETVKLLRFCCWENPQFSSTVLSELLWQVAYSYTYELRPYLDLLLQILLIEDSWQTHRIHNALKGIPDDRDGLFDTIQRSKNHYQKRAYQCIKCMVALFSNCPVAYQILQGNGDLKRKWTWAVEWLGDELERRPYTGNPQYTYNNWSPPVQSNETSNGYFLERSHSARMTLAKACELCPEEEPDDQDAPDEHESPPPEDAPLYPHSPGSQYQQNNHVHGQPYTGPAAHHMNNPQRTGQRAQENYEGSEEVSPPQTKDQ
# Procedure: HA-Ub-VS is commonly used to label DUBs in cell lysates. […] A. and B. K562 cell lysates were treated with compound for 40 minutes prior to activity labeling with HA-Ub-VS (1.5 μM) for 20 minutes. Samples were analyzed by SDS-PAGE and immunoblotting with anti-HA antibody. C. […] Values were derived by fitting to the in Prism.
# [3] = system: MCF7 cells
# Procedure: MCF7 cells were dosed every 2 hours with the indicated concentration of C15. After 6 hours, cells were lysed by freeze thaw and then sonicated in 0.5% SDS. […] MCF7 cells were treated under the stated conditions then analyzed for cell cycle. […] G. Cells treated with C17 (25 μM), dosed every 24 hours. H. Cells treated with C17 (50 μM), dosed every 24 hours. […] These cells were left for 72 h (single dose) after which time the total number of viable cells was analyzed using Alamar Blue®. All data are n≧4 showing mean+/−s.e.m. K. MCF7 cells were plated with C17 for 24 hours after which time the total number of viable cells was measured by Alamar Blue®.
# All cells were grown at 37° C. in a 5% CO2 humidified atmosphere in DMEM supplemented with 10% heat inactivated FBS, 1× glutamax, and 1× penicillin/streptomycin. […] Proliferation assays were conducted by plating cells at 5% confluence in 96 well plates together with compound or 0.1% DMSO. Cells were allowed to grow for 72 hours (a 24 h dosing regimen was used for carbonate compounds) and then Alamar Blue® was added and number of cells was measured by fluorescence on a microplate reader.
# [4] = system: DUBs; assay: A-ring SAR: total ubiquitin pool in HEK293T lysates overexpressing ubiquitin-HA, western blot; assay type: biochemical, human; settings: 1.5 h, compounds numbered as in FIG. 3
# Procedure: HEK293T lysates overexpressing ubiquiting-HA were treated with the stated compound for 1.5 h and the total ubiquitin pool was analyzed by western blot (HA). […] Similar data were obtained for Cos-1 lysates.
# [5] = system: MCF7 cells; assay: viability and cell cycle of MCF7 cells (Alamar Blue, FACS); settings: Alamar Blue
# [6] = system: UCH-L5, UCH-L3, UCH-L1; assay: HA-Ub-VS activity profiling in cell lysates, UCH-Ls; assay type: biochemical, human
# Procedure: (§1) HA-ubiquitin vinylsulfone (HA-Ub-VS) irreversibly labels DUBs by modifying the catalytic cysteine residue Inhibition of the DUB prevents HA-Ub-VS labeling and the band is. […] The interaction with UCHL1/3 is reversible.
# (§2) Lysate labeling assay on untransfected cells (1.5 mg/mL) was run with the stated concentration of inhibitor (or 1% DMSO control) for between 19-60 mins. After this time HA-Ub-VS (1.5-0.7 μM) was added and incubated for 19 mins. After this time reaction mixture (9 μL) was removed and quenched in 2× (final concentration) reducing loading buffer. For recovery experiments, a lysate of 6 mg/mL was treated with saturating compound C14 (250 μM) and incubated for 40 mins. Afterward, the lysate was diluted to 0.6 mg/mL (final concentration of inhibitor 25 μM) in lysis buffer (final volume 100 μL), then HA-Ub-VS was added. Aliquots (15 μL) were removed at the stated time (5-119 mins) and immediately quenched in 2× (final concentration) reducing loading buffer. For all HA-Ub-VS experiments samples in loading buffer were heated only to 37° C. prior to loading on a gel. This assay is highly susceptible to concentration of lysate and HA-Ub-VS. Cell experiments were carried out as above with some modifications. For Cos-1 and MCF-7 cells, after trypsinization, media with compound was added to give a final concentration of compound equal to that used in the assay. Cell pellets were lysed on an ice/salt bath with a temperature of −5° C. and lysate was centrifuged for only 5 mins.
# (§3) HA-Ub-VS is an irreversible inhibitor of DUBs that is widely used in activity profiling. If the DUB inhibitors react to form a thiocarbonylated enzyme as proposed (FIG. 29B), then HA-Ub-VS labeling will be blocked. Treatment of HEK 293T lysates with HA-Ub-VS produced the characteristic pattern of protein bands at 250, 150-100, 45, 38 and 36 kDa, generally ascribed to USP9x (292 kDa), USP19 (146 kDa), USP7/8 (128 and 127 kDa, respectively), USP28/15 (122 and 112 kDa, respectively), UCH-L5 (38 kDa), UCH-L3 (26 kDa) and UCH-L1 (25 kDa) as depicted in FIG. 31.
# (§4) The effect of diphenylcarbonates on HA-Ub-VS labeling was assessed to investigate the selectivity of DUB inhibition. Lysates were preincubated with diphenyl carbonates (75 μM), then treated with HA-Ub-VS (FIG. 31A). […] These C17 and C22-sensitive DUBs are most likely USP9x, USP19, USP7/8 and UCHL5, based on molecular weight (FIGS. 31B and 38). The identity of USP7 was confirmed by immunoblotting (FIG. 38F). […] Similar behavior was observed on Cos-1 cell lysates (FIG. 38B).
# [7] = system: USP9x, USP19, USP7/8, USP28/15; assay: HA-Ub-VS activity profiling in cell lysates, USPs; assay type: biochemical, human
# Procedure: as §1, §2, §3, §4
# [8] = system: HEK 293T cells; assay: accumulation of K48- and K63-linked Ub species in HEK 293T cells; assay type: cell-based, human; settings: 50 μM, 2 h
# Procedure: FIG. 32 depicts data showing that diphenyl carbonates inhibit DUBs in HEK 293T cells. A. Viability of HEK 293T cells assessed by the propidium iodide exclusion method: diphenyl carbonate (100 μM), bortezomib (V, 20 μM) and G5 (2 μM). N≧3, mean+/−s.d. B. HEK 293T cells were treated with the stated compounds (50 μM) for 2 h and then assayed for the accumulation of K48-linked Ub species. C. As in A, but K63-linked Ub was assayed. D. HEK 293T cells were treated with C14, C15, C17, C18 (100 μM) or DMSO for 2 hours, then harvested, lysed and treated with HA-Ub-VS. After 30 min, lysates were analyzed by SDS-PAGE and probed for HA, tubulin and actin. An intervening lane was removed for clarity. E. HEK 293T cells expressing Ub-G76V-GFP were treated with diphenyl carbonates (100 μM), bortezomib (20 μM) and G5 (2 μM). […] N>3, Mean+/−s.d. See also FIG. 39. […]
# [9] = HEK 293T lysates, 75 μM, 30 minutes preincubation
compound,measurement,setting,value
O=C(Oc1ccccc1)Oc1ccc(CNCc2ccc(Cl)cc2)cc1 [Compound C5],stabilization of the HMW-Ub pool,[1],inhibited the decomposition of the HMW-Ub pool
same,"DUB inhibitory activity, SAR in words",[1],retained DUB inhibitory activity
NCc1ccc(CC(=O)Oc2ccccc2)cc1 [Compound C10],stabilization of the HMW-Ub pool,[1],nor the analogous esters (C9 and C10) stabilized HMW-Ub
"COc1ccc(OC(=O)Oc2ccc(CN)cc2)cc1 [Compound C13, 4-(aminomethyl)phenyl(4-methoxyphenyl)carbonate]","DUB inhibitory activity, SAR in words",[1],had no effect on inhibitory activity
CC(C)(C)OC(=O)NCc1ccc(NC(=S)Oc2ccc(Cl)cc2)cc1 [TCM28],EC50,[2],45 ± 8 µM
"NCc1ccc(OC(=O)Oc2ccc(F)cc2)cc1 [Compound C11, 4-(aminomethyl)phenyl(4-fluorophenyl)carbonate]","DUB inhibitory activity, SAR in words",[1],had no effect on inhibitory activity
NCc1ccc(NC(=O)Oc2ccccc2)cc1 [Compound C8],stabilization of the HMW-Ub pool,[1],"Neither the analogous carbamates (C7 and C8, FIG. 30 and FIG. 36), nor the analogous esters (C9 and C10) stabilized HMW-Ub"
CC(C)(C)OC(=O)NCc1ccc(OC(=O)Oc2ccc3ccccc3c2)cc1 [Compound C19],"DUB inhibitory activity, SAR in words",[1],Inhibitory activity was not recovered
CC(C)(C)OC(=O)NCc1ccc(NC(=S)Oc2ccccc2)cc1 [TCM23],EC50,[2],> 50 µM
"Cc1ccc(OC(=O)Oc2ccc(CN)cc2)cc1 [Compound C12, 4-(aminomethyl)phenyl(4-methylphenyl)carbonate]","DUB inhibitory activity, SAR in words",[1],had no effect on inhibitory activity
"NCc1ccc(O)cc1 [aminomethylphenol, 4-(aminomethyl)phenol]","cytotoxicity after single dose, 72 h",[3],not cytotoxic
CC(C)(C)CNCc1ccc(OC(=O)Oc2ccc3ccccc3c2)cc1.Cl [compound 11],inhibition (total ubiquitin pool),[4],have some potency
"Oc1ccc2ccccc2c1 [Compound 2-Naphthol, 2-Naphthol]","cytotoxicity after single dose, 72 h",[5],not cytotoxic
CC(C)CNCc1ccc(OC(=O)Oc2ccc3ccccc3c2)cc1.Cl [compound 10],inhibition (total ubiquitin pool),[4],have some potency
CC(C)(C)OC(=O)NCc1ccc(OC(=O)Oc2ccccc2)cc1 [Compound C3],"DUB inhibitory activity, SAR in words",[1],activity was lost
CC(C)CNCc1ccc(OC(=O)Oc2ccc3ccccc3c2)cc1 [Compound C21],"DUB inhibitory activity, SAR in words",[1],somewhat deleterious
"CC(C)(C)OC(=O)NCc1ccc(OC(=O)Oc2ccc(Cl)cc2)cc1 [Compound C23, N-Boc 4-(aminomethyl)phenyl(4-chlorophenyl)carbonate]","DUB inhibitory activity, SAR in words",[1],Inhibitory activity was not recovered
NCc1ccc(OC(=O)Nc2ccccc2)cc1 [Compound C7],stabilization of the HMW-Ub pool,[1],"Neither the analogous carbamates (C7 and C8, FIG. 30 and FIG. 36), nor the analogous esters (C9 and C10) stabilized HMW-Ub"
NCc1ccc(OC(=O)Cc2ccccc2)cc1 [Compound C9],stabilization of the HMW-Ub pool,[1],nor the analogous esters (C9 and C10) stabilized HMW-Ub
N=C(N)NCc1ccc(OC(=O)Oc2ccc3ccccc3c2)cc1 [Compound C22],"DUB inhibitory activity, SAR in words",[1],efficacious
same,HA-Ub-VS labeling of UCHL enzymes,[6]; [9],relatively little effect on the UCHL enzymes
same,"inhibition of UCH-L1/3/5, dose response",[6]; below 50 μM,little inhibition of UCH-L1/3/5 was observed below 50 μM
same,HA-Ub-VS labeling of USPs,[7]; [9],decreased HA-Ub-VS labeling of several USPs
same,"HA-Ub-VS labeling, dose response",[7]; at 12 μM,significantly inhibited the labeling of several high molecular weight proteins
same,accumulation of K48-linked HMW-Ub,[8],failed to cause the accumulation of HMW-Ub
"CC(C)(C)OC(=O)NCc1ccc(OC(=O)Oc2ccc(Cl)cc2)cc1 [compound 16, N-Boc 4-(aminomethyl)phenyl(4-chlorophenyl)carbonate]",inhibition (total ubiquitin pool),[4],not an efficient inhibitor
"NCc1ccc(OC(=O)Oc2ccccc2Cl)cc1 [Compound C16, 4-(aminomethyl)phenyl(2-chlorophenol)carbonate]","DUB inhibitory activity, SAR in words",[1],improved potency relative to C4
CC(C)(C)CNCc1ccc(OC(=O)Oc2ccc3ccccc3c2)cc1 [Compound C20],"DUB inhibitory activity, SAR in words",[1],inhibitory activity was retained
same,accumulation of K48-linked HMW-Ub,[8],failed to cause the accumulation of HMW-Ub
